# Source: patent US20200038411A1, “METHODS OF TREATING TE[…]” (priority 2017, published 2020)
# Entries after “also recorded” stand apart in the source; their conditions may differ.
# How the values were obtained:
# [1] = men; upper range for testosterone administered as TU (lymphatic absorption); cited from earlier work
# [2] = In vitro conversion of TU to T in whole blood at ambient temperature; assay type: in vitro ADME; settings: human blood, conditions typical of harvesting serum, no enzyme inhibitors
# Method: Testosterone undecanoate is metabolized into testosterone. Its degradation in whole blood into testosterone has been studied in conditions typically used in clinical trials.
# The in vitro conversion of TU to T in whole blood samples at ambient temperature was investigated by harvesting approximately 50 mL of blood from subjects prior to their oral TU administration. Aliquots of the pretreatment whole blood were added to 5 Plain sample collection tubes each tube previously spiked with 1 of 5 selected concentrations of TU (0, 30, 100, 300 and 1000 ng/mL). After gentle mixing, the tubes were stored at room temperature (about 23° C.) for 30 minutes prior to separating serum. […]
# The frozen samples were stored at −20° C. until assay. All samples from a single participant were analyzed in the same assay run. Serum and plasma from the different tubes were measured using the methods developed for serum. Both T and DHT were measured in the same assay and both TU and […] were analyzed in the same assay developed for serum measurements. […]
# When serum is harvested in the absence of enzyme inhibitors, the hydrolysis of TU and DHTU to T and DHT occurs during whole blood collection and processing to serum. […] Thus, testosterone must be analyzed in enzyme-inhibited plasma when TU is the administered medication.
# [3] = Single 316 mg oral TU dose, T concentration-time profiles by sample collection tube type; assay type: in vivo, human; settings: 3 hours post dose
# Method: Each study participant received a single oral TU dose containing 316 mg TU immediately prior to a standardized breakfast meal comprised of 800 to 1000 calories containing approximately 30 g of fat or about 25 to 30 percent fat. Subjects were instructed to consume the entire breakfast meal in no more than 30 minutes. Blood samples were collected 30 minutes prior to oral TU administration and at 0 (pre-dose), and 1, 2, 3, 4, 5, 6, 7, 8, 9, 10, 11 and 12 hrs post-dose. Because of the timed sample collections, all except for one subject entered the clinical research unit around 7 AM and spend the study period of 12 to 14 hours in the unit. […]
# Blood samples collected in tubes were kept at room temperature for 30 minutes then centrifuged at 4° C. for 20 minutes at >1000 g. For each blood collection tube, serum was separated promptly after centrifugation and equal quantities of serum were transferred into 2 appropriately labelled polypropylene tubes. […]
# Blood samples collected in tubes were immediately kept on ice for 30 minutes then centrifuged at 4° C. for 20 minutes at >1000 g. For each blood collection tube, serum was separated promptly after centrifugation and equal quantities of serum were transferred into 2 appropriately labelled polypropylene tubes. […]
# The frozen samples were stored at −20° C. until assay. All samples from a single participant were analyzed in the same assay run. […]
# [4] = Blood collected into different tubes spiked with TU, measured T (LA Biomed experiments); assay type: in vitro ADME, human
# Excerpt: Additionally, non-specific esterases in blood may lead to hydrolysis of testosterone undecanoate (TU) (and its metabolite DHTU) during the blood collection procedure used to collect serum or plasma for evaluating T, dihydrotestosterone (DHT), TU and dihydrotestosterone undecanoate (DHTU) concentrations. If the extent of hydrolysis ex vivo is significant (e.g., at high concentrations of circulating TU or DHTU), then serum or plasma values of T, DHT, TU and DHTU may not accurately reflect the true in vivo concentrations of these compounds (e.g., T and DHT values may be artificially high due to ex vivo conversion of TU to T or DHTU to DHT). It has previously been shown that the collection of blood in sodium fluoride (NaF) containing tubes (so called ‘gray tops’ in a clinical setting) interfered with the measurement of serum T with a 20% decrease in the measured serum T levels (Wang, et al, 2008). […] In addition, the measured T concentrations in fluoride-containing tubes decreased by about 12 to 25%. Lachance et al published an article in 2015 that concluded T must be analyzed in enzyme-inhibited (i.e., NaF containing) plasma or serum when TU is administered to subjects in an oral form.
Compound,plasma half-life of testosterone [1] [min],degradation (conversion) of TU to testosterone in whole blood [2],difference in mean T concentration between the Plain tube type and the other tube types [3],"mean assayed T concentration of NaF tube types, less than the Plain tube type [3]","increases in the measured T levels after spiking with TU ([4]; NaF+oxalate and NaF+EDTA tubes kept at 4° C. for 30 minutes, 0, 300 or 600 ng/ml TU)","increase in measured T concentrations (ex vivo conversion of TU to T) ([4]; addition of TU in excess of 500 ng/ml, standard 'red top' plain tubes without additives) [%]"
"C[C@]12CC[C@H]3[C@@H](CCC4=CC(=O)CC[C@@]43C)[C@@H]1CC[C@@H]2O [T, Testosterone]",10 to 100,,,,,
"CCCCCCCCCCC(=O)O[C@H]1CC[C@H]2[C@@H]3CCC4=CC(=O)CC[C@]4(C)[C@H]3CC[C@]12C [TU, testosterone undecanoate]",,degrades extensively; also recorded: extensive and continues over time,approximately 150 ng/dL,approximately 14%,minimal increases,20 to 25
